Laboratory results: publication PMC5218480 (PLoS ONE, 2017)

Tested on: MV-4-11 cells
Experiment: Gene expression microarray analysis (Affymetrix PrimeView) and GSEA
Format: cell-based, human
Parameters: RFU PODN (11730768_x_at) / Fold change /veh PODN (11730768_x_at) / RFU LINC00158 (11744669_a_at) / Fold change /veh LINC00158 (11744669_a_at) / RFU DUSP10 (11751237_a_at) / Fold change /veh DUSP10 (11751237_a_at) / RFU ID3 (11757404_x_at) / Fold change /veh ID3 (11757404_x_at) / RFU PLEKHG5 (11737974_s_at) / Fold change /veh PLEKHG5 (11737974_s_at) / RFU LRRC4B (11730491_at) / Fold change /veh LRRC4B (11730491_at) / RFU GIMAP4 (11747438_a_at) / Fold change /veh GIMAP4 (11747438_a_at) / RFU KRT8 (11758183_x_at) / Fold change /veh KRT8 (11758183_x_at) / RFU CNN1 (11734310_a_at) / Fold change /veh CNN1 (11734310_a_at) / RFU VPS37D (11726825_at) / Fold change /veh VPS37D (11726825_at) / RFU C10orf10 (11716522_x_at) / Fold change /veh C10orf10 (11716522_x_at) / RFU KIR2DL2 /// KIR2DL4 /// KIR2DL5A /// KIR2DL5B /// KIR2DS1 /// KIR2DS2 /// KIR2DS3 /// KIR2DS4 /// KIR3DL3 /// KIR3DL3 /// KIR3DS1 (11738374_at) / Fold change /veh KIR2DL2 /// KIR2DL4 /// KIR2DL5A /// KIR2DL5B /// KIR2DS1 /// KIR2DS2 /// KIR2DS3 /// KIR2DS4 /// KIR3DL3 /// KIR3DL3 /// KIR3DS1 (11738374_at) / RFU C1QL1 (11718748_at) / Fold change /veh C1QL1 (11718748_at) / RFU TMPRSS4 (11747572_a_at) / Fold change /veh TMPRSS4 (11747572_a_at) / RFU HAMP (11756126_x_at) / Fold change /veh HAMP (11756126_x_at) / RFU RNFT2 (11725882_a_at) / Fold change /veh RNFT2 (11725882_a_at) / RFU NR4A2 (11747474_a_at) / Fold change /veh NR4A2 (11747474_a_at) / RFU ABCC12 (11746883_a_at) / Fold change /veh ABCC12 (11746883_a_at) / RFU TMEM136 (11760407_x_at) / Fold change /veh TMEM136 (11760407_x_at) / RFU CLDN22 /// WWC2 (11732394_at) / Fold change /veh CLDN22 /// WWC2 (11732394_at) / RFU HLA-DPB1 (11760878_x_at) / Fold change /veh HLA-DPB1 (11760878_x_at) / RFU SPINT1 (11716480_a_at) / Fold change /veh SPINT1 (11716480_a_at) / RFU GAP43 (11754022_s_at) / Fold change /veh GAP43 (11754022_s_at) / RFU A4GNT (11735810_at) / Fold change /veh A4GNT (11735810_at) / RFU PRB3 (11715151_x_at) / Fold change /veh PRB3 (11715151_x_at) / RFU TUBB4B (11761932_at) / Fold change /veh TUBB4B (11761932_at) / RFU CAPN14 (11732068_a_at) / Fold change /veh CAPN14 (11732068_a_at) / RFU TMCC2 (11721928_a_at) / Fold change /veh TMCC2 (11721928_a_at) / RFU IRGQ (11745062_a_at) / Fold change /veh IRGQ (11745062_a_at) / RFU FAM174B (11720279_a_at) / Fold change /veh FAM174B (11720279_a_at) / RFU TMPRSS4 (11748680_a_at) / Fold change /veh TMPRSS4 (11748680_a_at) / RFU FAM212B (11763350_a_at) / Fold change /veh FAM212B (11763350_a_at) / RFU PLEKHG5 (11743358_a_at) / Fold change /veh PLEKHG5 (11743358_a_at) / RFU ZSCAN30 (11745921_a_at) / Fold change /veh ZSCAN30 (11745921_a_at) / RFU CMKLR1 (11741424_a_at) / Fold change /veh CMKLR1 (11741424_a_at) / RFU LOC101060620 /// MAPK8IP1 (11723275_at) / Fold change /veh LOC101060620 /// MAPK8IP1 (11723275_at) / RFU SPTSSB (11747773_x_at) / Fold change /veh SPTSSB (11747773_x_at) / RFU PRSS12 (11739890_at) / Fold change /veh PRSS12 (11739890_at) / RFU BIN1 (11741810_x_at) / Fold change /veh BIN1 (11741810_x_at) / RFU WNT11 (11732464_a_at) / Fold change /veh WNT11 (11732464_a_at) / RFU C10orf10 (11716521_a_at) / Fold change /veh C10orf10 (11716521_a_at) / RFU C5orf56 (11738089_at) / Fold change /veh C5orf56 (11738089_at) / RFU CYB561 (11721691_x_at) / Fold change /veh CYB561 (11721691_x_at) / RFU ANKRD19P (11752326_a_at) / Fold change /veh ANKRD19P (11752326_a_at) / RFU OR2T12 /// OR2T33 /// OR2T8 (11738714_s_at) / Fold change /veh OR2T12 /// OR2T33 /// OR2T8 (11738714_s_at) / RFU VCAN (11748164_a_at) / Fold change /veh VCAN (11748164_a_at) / RFU JSRP1 (11732532_at) / Fold change /veh JSRP1 (11732532_at) / RFU KRTAP10-11 (11738290_x_at) / Fold change /veh KRTAP10-11 (11738290_x_at) / RFU MYO3A (11730013_a_at) / Fold change /veh MYO3A (11730013_a_at) / RFU EBF3 (11725865_a_at) / Fold change /veh EBF3 (11725865_a_at) / RFU CAMK2N1 (11719241_x_at) / Fold change /veh CAMK2N1 (11719241_x_at) / RFU C5orf56 (11738088_a_at) / Fold change /veh C5orf56 (11738088_a_at) / RFU OLFML3 (11715873_a_at) / Fold change /veh OLFML3 (11715873_a_at) / RFU LOC100653217 /// NTM (11731650_a_at) / Fold change /veh LOC100653217 /// NTM (11731650_a_at) / RFU MAPK11 (11762145_a_at) / Fold change /veh MAPK11 (11762145_a_at) / RFU FIZ1 (11724087_x_at) / Fold change /veh FIZ1 (11724087_x_at) / RFU OASL (11726364_x_at) / Fold change /veh OASL (11726364_x_at) / RFU SOX15 (11748057_x_at) / Fold change /veh SOX15 (11748057_x_at) / RFU CD79A (11719716_a_at) / Fold change /veh CD79A (11719716_a_at) / RFU HIST1H1D (11736915_at) / Fold change /veh HIST1H1D (11736915_at) / RFU CASKIN2 (11723855_a_at) / Fold change /veh CASKIN2 (11723855_a_at) / RFU LOC730098 (11760151_x_at) / Fold change /veh LOC730098 (11760151_x_at) / RFU OR4N2 (11742367_at) / Fold change /veh OR4N2 (11742367_at) / RFU PRRT2 (11749266_a_at) / Fold change /veh PRRT2 (11749266_a_at) / RFU SNX32 (11753110_a_at) / Fold change /veh SNX32 (11753110_a_at) / RFU CDHR5 (11726645_a_at) / Fold change /veh CDHR5 (11726645_a_at) / RFU RCAN1 (11760418_a_at) / Fold change /veh RCAN1 (11760418_a_at) / RFU FAM167A (11723789_a_at) / Fold change /veh FAM167A (11723789_a_at) / RFU FAM26E (11764081_at) / Fold change /veh FAM26E (11764081_at) / RFU ISYNA1 (11749810_s_at) / Fold change /veh ISYNA1 (11749810_s_at) / RFU ACY1 (11761880_at) / Fold change /veh ACY1 (11761880_at) / RFU 11764098_at / Fold change /veh 11764098_at / RFU SAMD14 (11745864_x_at) / Fold change /veh SAMD14 (11745864_x_at) / RFU NPB (11741838_a_at) / Fold change /veh NPB (11741838_a_at) / RFU TMPRSS6 (11731388_a_at) / Fold change /veh TMPRSS6 (11731388_a_at) / RFU KRTAP10-2 (11738614_at) / Fold change /veh KRTAP10-2 (11738614_at) / RFU ARHGAP8 /// PRR5-ARHGAP8 (11727945_x_at) / Fold change /veh ARHGAP8 /// PRR5-ARHGAP8 (11727945_x_at) / RFU KRTAP5-7 /// NADSYN1 (11734609_at) / Fold change /veh KRTAP5-7 /// NADSYN1 (11734609_at) / RFU RASL12 (11751679_a_at) / Fold change /veh RASL12 (11751679_a_at) / RFU CDKN2B (11736163_a_at) / Fold change /veh CDKN2B (11736163_a_at) / RFU PRF1 (11729649_at) / Fold change /veh PRF1 (11729649_at) / RFU, ZNF638 /// ZNF638-IT1 / Fold change vs veh, ZNF638 /// ZNF638-IT1 / RFU, PANK3 / Fold change vs veh, PANK3 / RFU, SH3YL1 / Fold change vs veh, SH3YL1 / RFU, ZEB2 / Fold change vs veh, ZEB2 / RFU, NRIP1 / Fold change vs veh, NRIP1 / RFU, PTTG1IP / Fold change vs veh, PTTG1IP / RFU, CAPN2 / Fold change vs veh, CAPN2 / RFU, MED14 / Fold change vs veh, MED14 / RFU, SNORA58 / Fold change vs veh, SNORA58 / RFU, C1orf63 / Fold change vs veh, C1orf63 / RFU, LRRFIP1 / Fold change vs veh, LRRFIP1 / RFU, NDUFAF7 / Fold change vs veh, NDUFAF7 / RFU, SLC12A2 / Fold change vs veh, SLC12A2 / RFU, IBTK / Fold change vs veh, IBTK / RFU, ESF1 / Fold change vs veh, ESF1 / Fold change vs veh, TMEM50B / RFU, TAOK1 / Fold change vs veh, TAOK1 / RFU, ACBD3 / Fold change vs veh, ACBD3 / RFU, TMA16 / Fold change vs veh, TMA16 / RFU, RWDD3 / Fold change vs veh, RWDD3 / RFU, BCAT1 / Fold change vs veh, BCAT1 / RFU, EDEM3 / Fold change vs veh, EDEM3 / RFU, TMEM33 / Fold change vs veh, TMEM33 / RFU, WDR75 / Fold change vs veh, WDR75 / RFU, AHCTF1 / Fold change vs veh, AHCTF1 / RFU, TFRC / Fold change vs veh, TFRC / RFU, ZDHHC17 / Fold change vs veh, ZDHHC17 / RFU, NOM1 / Fold change vs veh, NOM1 / RFU, ARL8B / Fold change vs veh, ARL8B / RFU, ZBTB11 / Fold change vs veh, ZBTB11 / RFU, TAMM41 / Fold change vs veh, TAMM41 / RFU, KIAA1704 /// LOC100996395 / Fold change vs veh, KIAA1704 /// LOC100996395 / RFU, ING1 / Fold change vs veh, ING1 / RFU, TRMT61B / Fold change vs veh, TRMT61B / RFU, FUBP3 / Fold change vs veh, FUBP3 / RFU, TP53 / Fold change vs veh, TP53 / RFU, TNKS2 / Fold change vs veh, TNKS2 / RFU, ZFP14 / Fold change vs veh, ZFP14 / RFU, ACTR2 / Fold change vs veh, ACTR2 / RFU, PPP3R1 / Fold change vs veh, PPP3R1 / RFU, PIK3R1 / Fold change vs veh, PIK3R1 / RFU, HNRNPA1 / Fold change vs veh, HNRNPA1 / RFU, RNF170 / Fold change vs veh, RNF170 / RFU, ZNF28 / Fold change vs veh, ZNF28 / RFU, RNGTT / Fold change vs veh, RNGTT / RFU, OGT / Fold change vs veh, OGT / RFU, BRD1 / Fold change vs veh, BRD1 / RFU, MARS / Fold change vs veh, MARS / RFU, ZNF655 / Fold change vs veh, ZNF655 / RFU, FAHD1 / Fold change vs veh, FAHD1 / RFU, BDP1 / Fold change vs veh, BDP1 / RFU, LRRCC1 / Fold change vs veh, LRRCC1 / RFU, ARID1A / Fold change vs veh, ARID1A / RFU, ZNF146 / Fold change vs veh, ZNF146 / RFU, ZNF330 / Fold change vs veh, ZNF330 / RFU, GPN3 / Fold change vs veh, GPN3 / RFU, C9orf123 / Fold change vs veh, C9orf123 / RFU, N4BP2L2 / Fold change vs veh, N4BP2L2 / RFU, ARFIP1 / Fold change vs veh, ARFIP1 / RFU, FAM179B / Fold change vs veh, FAM179B / RFU, BCL10 / Fold change vs veh, BCL10 / RFU, UHRF1BP1L / Fold change vs veh, UHRF1BP1L / RFU, BET1 / Fold change vs veh, BET1 / RFU, CNOT2 / Fold change vs veh, CNOT2 / RFU, ZNF268 / Fold change vs veh, ZNF268 / Fold change vs veh, ZNF507 / RFU, DGCR2 / Fold change vs veh, DGCR2 / RFU, WDSUB1 / Fold change vs veh, WDSUB1 / Fold change vs veh, HSP90B1 /// MIR3652 / RFU, ADSS / Fold change vs veh, ADSS / RFU, GK / Fold change vs veh, GK / RFU, ZNF148 / Fold change vs veh, ZNF148 / RFU, TAF9 / Fold change vs veh, TAF9 / RFU, SLC1A5 / Fold change vs veh, SLC1A5 / RFU, SLMO2 / Fold change vs veh, SLMO2 / RFU, ABCC4 / Fold change vs veh, ABCC4 / RFU, LOC101060439 /// RAP1B / Fold change vs veh, LOC101060439 /// RAP1B / RFU, RFX7 / Fold change vs veh, RFX7 / RFU, GTPBP10 / Fold change vs veh, GTPBP10 / RFU, CNEP1R1 / Fold change vs veh, CNEP1R1 / RFU, BIVM-ERCC5 /// ERCC5 / Fold change vs veh, BIVM-ERCC5 /// ERCC5 / RFU, ILF3 / Fold change vs veh, ILF3 / RFU 11762660_at / Fold change /veh 11762660_at / RFU VCAN (11757783_s_at) / Fold change /veh VCAN (11757783_s_at) / RFU DDX43 (11728927_at) / Fold change /veh DDX43 (11728927_at) / RFU KRT8 (11758188_x_at) / Fold change /veh KRT8 (11758188_x_at) / RFU NKD1 (11759106_at) / Fold change /veh NKD1 (11759106_at) / RFU SRD5A1 (11742802_a_at) / Fold change /veh SRD5A1 (11742802_a_at) / RFU TPSAB1 /// TPSB2 (11721975_s_at) / Fold change /veh TPSAB1 /// TPSB2 (11721975_s_at) / RFU GSTM3 (11746129_a_at) / Fold change /veh GSTM3 (11746129_a_at) / RFU IL23R (11737362_x_at) / Fold change /veh IL23R (11737362_x_at) / RFU TMEM51 (11727254_a_at) / Fold change /veh TMEM51 (11727254_a_at) / RFU PIWIL2 (11732686_x_at) / Fold change /veh PIWIL2 (11732686_x_at) / RFU ORM1 (11744905_x_at) / Fold change /veh ORM1 (11744905_x_at) / RFU CCDC152 (11743942_at) / Fold change /veh CCDC152 (11743942_at) / RFU ECM1 (11717891_a_at) / Fold change /veh ECM1 (11717891_a_at) / RFU IL23R (11748794_a_at) / Fold change /veh IL23R (11748794_a_at) / RFU TNFAIP8L3 (11732012_x_at) / Fold change /veh TNFAIP8L3 (11732012_x_at) / RFU MBOAT4 (11741988_at) / Fold change /veh MBOAT4 (11741988_at) / RFU 11764193_at / Fold change /veh 11764193_at / RFU TMEM53 (11763286_at) / Fold change /veh TMEM53 (11763286_at) / RFU MAGEB2 (11727129_at) / Fold change /veh MAGEB2 (11727129_at) / RFU TMEM200A (11744735_a_at) / Fold change /veh TMEM200A (11744735_a_at) / RFU CCDC152 (11751479_a_at) / Fold change /veh CCDC152 (11751479_a_at) / RFU FAM211A (11726209_a_at) / Fold change /veh FAM211A (11726209_a_at) / RFU RGS16 (11746705_a_at) / Fold change /veh RGS16 (11746705_a_at) / RFU VCAN (11755009_s_at) / Fold change /veh VCAN (11755009_s_at) / RFU RHOB (11743442_s_at) / Fold change /veh RHOB (11743442_s_at) / RFU RGS16 (11720943_a_at) / Fold change /veh RGS16 (11720943_a_at) / RFU RGS16 (11720944_at) / Fold change /veh RGS16 (11720944_at) / RFU, VPS4B / Fold change vs veh, VPS4B / RFU, CREB1 / Fold change vs veh, CREB1 / RFU, DNAJC13 / Fold change vs veh, DNAJC13 / RFU, GNAQ / Fold change vs veh, GNAQ / RFU, CDK5R1 / Fold change vs veh, CDK5R1 / RFU, ZRANB3 / Fold change vs veh, ZRANB3 / RFU, CUL4A / Fold change vs veh, CUL4A / RFU, CCNY / Fold change vs veh, CCNY / RFU, UFL1 / Fold change vs veh, UFL1 / RFU, COG3 / Fold change vs veh, COG3 / RFU, DIAPH2 / Fold change vs veh, DIAPH2 / RFU, SKA2 / Fold change vs veh, SKA2 / RFU, AFF3 / Fold change vs veh, AFF3 / RFU, LMF1 / Fold change vs veh, LMF1 / RFU, IPO11 / Fold change vs veh, IPO11 / RFU, DFFB / Fold change vs veh, DFFB / RFU, FOXP1 / Fold change vs veh, FOXP1 / RFU, CARD8 / Fold change vs veh, CARD8 / RFU, STRN3 / Fold change vs veh, STRN3 / RFU, ADK / Fold change vs veh, ADK / RFU, RASSF2 / Fold change vs veh, RASSF2 / RFU, WIPF1 / Fold change vs veh, WIPF1 / RFU, LARP1B / Fold change vs veh, LARP1B / RFU, RASA1 / Fold change vs veh, RASA1 / RFU, RB1 / Fold change vs veh, RB1 / RFU, PPFIA1 / Fold change vs veh, PPFIA1 / RFU, MAT2A / Fold change vs veh, MAT2A / RFU, CCT5 / Fold change vs veh, CCT5 / RFU, WDR92 / Fold change vs veh, WDR92 / RFU, CUX1 / Fold change vs veh, CUX1 / RFU, TTC7A / Fold change vs veh, TTC7A / RFU, TMEM135 / Fold change vs veh, TMEM135 / RFU, DEPTOR / Fold change vs veh, DEPTOR / RFU, CPM / Fold change vs veh, CPM / RFU, DNAJB6 / Fold change vs veh, DNAJB6 / RFU, CACNA2D3 / Fold change vs veh, CACNA2D3 / RFU, DTX4 / Fold change vs veh, DTX4 / RFU, TFCP2 / Fold change vs veh, TFCP2 / RFU, GMCL1 /// GMCL1P1 / Fold change vs veh, GMCL1 /// GMCL1P1 / RFU, AEBP2 / Fold change vs veh, AEBP2 / RFU, SNHG1 /// SNORD22 /// SNORD25 /// SNORD26 /// SNORD27 /// SNORD28 /// SNORD29 /// SNORD31 / Fold change vs veh, SNHG1 /// SNORD22 /// SNORD25 /// SNORD26 /// SNORD27 /// SNORD28 /// SNORD29 /// SNORD31 / Fold change (Aza/veh), C12orf56 (ProbeSet 11735607_a_at) / Fold change (ACY-1035/veh), C12orf56 (ProbeSet 11735607_a_at) / Fold change (Aza/veh), FGFR1OP (ProbeSet 11751329_s_at) / Fold change (ACY-1035/veh), FGFR1OP (ProbeSet 11751329_s_at) / Fold change (Aza/veh), VPS36 (ProbeSet 11739960_a_at) / Fold change (ACY-1035/veh), VPS36 (ProbeSet 11739960_a_at) / RFU SYPL1 (11715823_x_at) / Fold change /veh SYPL1 (11715823_x_at) / RFU IGFBP7 (11715501_s_at) / Fold change /veh IGFBP7 (11715501_s_at) / RFU REEP3 (11722064_at) / Fold change /veh REEP3 (11722064_at) / RFU IGLL1 (11728026_x_at) / Fold change /veh IGLL1 (11728026_x_at): dose or concentration left out as unconfirmed
Conditions: ProbeSet 11762504_a_at; LIST D

## Nc1ccc(-c2cccs2)cc1NC(=O)c1ccc2c(c1)cc(C1CC1)n2CCN1CCOCC1 [ACY-1035]
  RFU, ZRANB3: 82.93 RFU
